In patent US12458614B2, “Therapeutic agents for improved mobility and cognitive function and for treating neurodegenerative diseases and lysosomal storage disorders” (priority 2017, dated 2025):

Experiments:
[1] = test system: subjects with no apparent dysfunction in cognitive ability or movement/balance; experiment: Balancing ability (eyes closed, non-dominant foot lifted); assay type: in vivo, human
Method: Due to reported improvement in balance on treatment we measured balancing ability at the end of the treatment period and at the end of the washout period. This assessment required the subject to close their eyes and lift their non-dominant foot around 6 inches off the ground. The subject was then timed to see how long they could remain upright and without significant wobbles. This was repeated three times, and the values averaged. […] This assessment required the subject to close their eyes and lift their non-dominant foot around 6 inches off the ground. The subject was then timed to see how long they could remain upright and without significant wobbles. This was repeated three times, and the values averaged. We measured balancing ability at the end of the treatment period and at the end of the washout period. This assessment required the subject to close their eyes and lift their non-dominant foot around 6 inches off the ground. The subject was then timed to see how long they could remain upright and without significant wobbles. This was repeated three times, and the values averaged.

[2] = test system: Mucolipidosis Type II (MLII) patient fibroblasts; experiment: Lysosomal volume via LysoTracker; assay type: cell-based, human; conditions: 1 mM, 6 days
[3] = test system: Niemann-Pick A (NPA) patient fibroblasts; experiment: Lysosomal volume via LysoTracker; assay type: cell-based, human; conditions: 1 mM, 6 days
[4] = test system: patients with multisystemic atrophy cerebellar type (MSA-C); experiment: Case studies, multisystemic atrophy cerebellar type; assay type: in vivo, human
[5] = test system: Npc1−/− mice; experiment: Observation of coat condition and disease symptoms; assay type: in vivo, mouse; conditions: Npc1−/− mice treated from weaning
Excerpt: Separate groups of Npc1^-/- and Npc1^+/+ mice were left untreated, as controls.

[6] = test system: patient with frontotemporal dementia with parkinsonism; experiment: Case study, frontotemporal dementia with parkinsonism; assay type: in vivo, human
Excerpt: After approximately one month of acetyl-leucine treatment, medication was stopped and the patient was re-examined 13 days later.

[7] = test system: Tay-Sachs disease patient fibroblasts; experiment: Glycosphingolipid (GSL) levels via HPLC; assay type: cell-based, human; conditions: 1 mM for 6 days, p<0.05
[8] = test system: wild-type (Npc1+/+) mice; experiment: Motor function analysis (Open Field Activity Monitor); assay type: in vivo, mouse; conditions: nine weeks of age
Method: (§1) Separate groups of Npc1^−/− and Npc1^+/+ mice were left untreated, as controls. Motor function analysis was performed on mice at eight and nine weeks of age using an Open Field Activity Monitor according to manufacturer's instructions (Linton Instruments, Amlogger Software). Each mouse was placed in a plastic cage with bedding and analysed for five minutes. Rears were counted manually. Motor function parameters measured were: • 1. Centre Rearing: mice rearing on hind legs unsupported; • 2. Rearing: mice rearing on hind legs with and without the support of cage walls; • 3. Activity: regular movement of the animal including walks; • 4. Front to Back (FR) count: movement of the animal from front to back of the cage; • 5. Active Time: duration (s/min) of activeness regardless of movement; • 6. Mobile Time: duration (s/min) of mobility; • 7. Rearing Time: duration of any rearing. Results Coat Condition

[9] = test system: Npc1−/− mice; experiment: as above; assay type: in vivo, mouse; conditions: nine weeks of age
Method: as §1

[10] = test system: patients with multiple system atrophy Parkinson type (MSA-P); experiment: Case studies, multiple system atrophy Parkinson type; assay type: in vivo, human
[11] = test system: Sandhoff disease patient fibroblasts; experiment: Glycosphingolipid (GSL) levels via HPLC; assay type: cell-based, human; conditions: 1 mM for 6 days
[12] = test system: patients with cerebellar ataxia; conditions: cited from earlier work
[13] = test system: patients with progressive supranuclear palsy; experiment: Case studies, progressive supranuclear palsy; assay type: in vivo, human
Method: After 27 days of acetyl-leucine treatment, medication was stopped and the patient was re-examined 60 days later. […] Gait analysis was performed before treatment commenced. After 17 days of treatment, medication was stopped and the patient was re-examined 4 days later. […] Gait analysis was performed before treatment commenced. After three weeks of treatment, medication was stopped and the patient was re-examined.

[14] = MSA-P Patient 2, after one month of treatment
[15] = PSP Patient 4, after three weeks of treatment

In the case of `CC(=O)NC(CC(C)C)C(=O)O` (racemic) [acetyl-DL-leucine], the “Time subject remained balanced” value ([1]; person one, end of the washout period) is reported as 8 s, the “Time subject remained balanced” value ([1]; person one, last day of the treatment period) is reported as 12 s and the “Time subject remained balanced” value ([1]; person three, end of the washout period) is reported as 4.01 s. For the same compound, the “Time subject remained balanced” value ([1]; person three, last day of the treatment period) was 7.27 s, the “Time subject remained balanced” value ([1]; person two, end of the washout period) was 3.1 s and the “Time subject remained balanced” value ([1]; person two, last day of the treatment period) was 7.9 s. For the same compound, the “LysoTracker fluorescence vs untreated disease fibroblasts” value [2] was “statistically significant reduction in LysoTracker fluorescence toward control level”, the “LysoTracker fluorescence vs untreated disease fibroblasts” value [3] was “statistically significant reduction in LysoTracker fluorescence toward control level” and the Speech ([4]; MSA-C Patient 1, after one week, 5 g per day) was “significant improvement in speech”. For the same compound, the Dizziness ([4]; MSA-C Patient 2, after 3 weeks) was “substantially improved”, the Falls ([4]; MSA-C Patient 2, after 3 weeks) was “falls completely stopped” and the Gait ([4]; MSA-C Patient 2, after 3 weeks) was “significant improvement of gait”. The “Symptoms after stopping medication” value ([4]; MSA-C Patient 2, one week after first stop) was “deterioration of gait and dizziness”, the “Symptoms after stopping medication” value ([4]; MSA-C Patient 2, two days after second stop) was “progressive deterioration of gait and dizziness” and the “Symptomatology after return to treatment” value ([4]; MSA-C Patient 3) was “symptomatology re-improved”. For the same compound, the “Gait analysis (summary)” value ([4]; MSA-C Patient 3, after one month) was “improvement of gait speed, and reductions of track width and gait fluctuations”, the Symptoms after re-suspension ([4]; MSA-C Patient 3, three weeks after treatment was again suspended) was “deterioration of symptoms, especially dizziness” and the “Symptoms after stopping medication” value ([4]; MSA-C Patient 3, two to three weeks after stopping) was “progressive deterioration of gait and dizziness”. For the same compound, the “Delay of discernible disease symptoms vs untreated Npc1−/− littermates” value [5] was “two”, the “Symptoms after suspension of treatment” value ([6]; re-examined 13 days after stop) was “symptoms worsened” and the Falls ([6]; under therapy) was “falls stopped”. The Speech ([6]; under therapy) was “improvement of speech”, the Gait ([6]; under therapy, 3 then 5 gram per day, about one month) was “significant improvement of gait” and the GSL storage [7] was “decrease was statistically significant”. The “Motor function properties vs untreated littermates” value [8] was “no significant difference in motor function properties”, the “Motor function properties vs untreated littermates” value [9] was “significantly improved motor function” and the “Symptoms after stopping medication” value ([10]; MSA-P Patient 1, 6 weeks later) was “did not report deterioration of symptoms”. For the same compound, the “Gait, falls, hypokinetic rigid-syndrome (patient report)” value ([10]; MSA-P Patient 1, after 3 weeks) was “no significant improvement of gait, reduction of falls or improved hypokinetic rigid-syndrome”, the “Balance (clinical examination)” value [10, 14] was “improved balancing on an imaginary tightrope” and the “Dizziness (patient report)” value [10, 14] was “subjective improvement of dizziness”. For the same compound, the “Symptomatology (patient report)” value ([10]; MSA-P Patient 2, after one month without medication) was “stable symptomatology”, the “Symptomatology (patient report)” value ([10]; MSA-P Patient 2, after two months without medication) was “worsening of general symptomatology” and the GSL levels [11] was “trend towards decreased GSL levels”. The “benefit in degenerative cerebellar ataxia” value ([12]; case series (Pelz 2015)) was “did not find benefit”, the “symptoms of cerebellar ataxia” value ([12]; case series (Strupp 2013)) was “symptomatic improvement of cerebellar ataxia” and the temporal gait variability ([12]; quantitative gait analysis (Schniepp 2015)) was “improved temporal gait variability”. For the same compound, the Symptoms after suspension ([13]; PSP Patient 1) was “symptoms worsened”, the “PSPRS Score” value ([13]; PSP Patient 1, re-examined about two months later) was “remained stable” and the “Dizziness and gait (patient report)” value ([13]; PSP Patient 1, under therapy, 27 days) was “significant reduction of dizziness and slight improvement of gait”. For the same compound, the “Gait / hypokinetic rigid syndrome (patient report)” value ([13]; PSP Patient 2, 17 days of treatment) was “no significant improvement of gait or hypokinetic rigid syndrome”, the “Gait / hypokinetic rigid syndrome (patient report)” value ([13]; PSP Patient 3, 17 days of treatment) was “no significant improvement of gait or hypokinetic rigid syndrome” and the Symptoms without medication ([13]; PSP Patient 4, after three months without medication) was “progression of hypokinetic-rigid syndrome”. The “Gait analysis (summary)” value [13, 15] was “improvement of gait with increased speed, max. speed, and step cycle length and reduction of track width, double stance and coefficient of variation” and the “Gait and falls (patient report)” value [13, 15] was “gait with increased subjective security and with reduced frequency of falls”.
